From patent US11617740B2, “Chemical inhibitors of Mycobacterium tuberculosis DosRST signaling and persistence” (priority 2017, dated 2023)
In brackets after ≈: the same amount, converted by molar mass. Entries after “also recorded” stand apart in the source; their conditions may differ. Where two headings read alike, the source gives them in different places.

Legend:
[1] = tested on: DosR-regulated genes hspX and tgs1; assay type: cell-based; details: for induction of hspX by the inducer / induction of tgs1 by the inducer: 2 h induction; for inhibition of hspX following DETA-NONOate treatment / inhibition of tgs1 following DETA-NONOate treatment / inhibition of hspX transcripts following vitamin C treatment / inhibition of tgs1 transcripts following vitamin C treatment: pretreated 24 h; for inhibition of hspX following DETA-NONOate treatment / inhibition of tgs1 following DETA-NONOate treatment: DETA-NONOate 2 h; for inhibition of hspX transcripts following vitamin C treatment / inhibition of tgs1 transcripts following vitamin C treatment: vitamin C 2 h
DosS = DosS (Mycobacterium tuberculosis, UniProt P9WGK3); assay: DosS autophosphorylation assay; assay type: biochemical; details: 10-40 μM; HC103A 40 μM
Experimental: Autophosphorylation assay. The DosS autophosphorylation assay was performed as previously described. DosS protein was treated with 10 μM, 20 μM or 40 μM of HC104A, or HC106A. DMSO and 40 μM HC103A were also included as […].

[2] = tested on: DosRST pathway, CDC1551 (hspX′::GFP) reporter strain; assay: microbe, parasite or virus in culture; assay type: cell-based
Mtb = assay type: cell-based, Mycobacterium tuberculosis
[3] = tested on: DosR regulated genes dosR, hspX, tgs1; assay type: cell-based; details: for inhibition of hspX and tgs1 gene expression during hypoxia: 10 μM, real-time PCR; for downregulation of dosR / downregulation of hspX / downregulation of tgs1: 40 μM, 6 d, in vitro
DosR regulon = assay type: cell-based; details: WT CDC1551, 40 μM; for genes from dosR regulon inhibited: >2-fold, q<0.05
[4] = tested on: DosR-controlled genes hspX and tgs1; assay type: cell-based; details: 40 μM, 48 h, infected macrophages
TAG accumulation in Mtb = assay type: cell-based; details: 40 μM, 6 d, vs DMSO treated WT
Mtb CDC1551 = assay type: cell-based; details: for survival relative to DMSO control during NRP: 40 μM, 10 days
DosR = DosR (Mycobacterium tuberculosis, UniProt P9WMF9); assay: Electrophoretic mobility shift assay (EMSA), DosR binding of hspX promoter DNA; details: for impact on DosR binding of DNA (words): 1-80 μM
[5] = tested on: DosR-regulated genes hspX and tgs1; assay type: cell-based; details: 20 μM, 6 d
[6] = tested on: DosRST signaling, CDC1551 (hspX′::GFP); assay: microbe, parasite or virus in culture; assay type: cell-based
[7] = not given; remark: listed apart in the source
[8] = Mycobacterium tuberculosis, 144 h, CDC1551 (hspX′::GFP), 6 d, read-out: EC50 of DosRST-dependent GFP fluorescence inhibition (FI)
[9] = Mycobacterium tuberculosis, Table 3, HC104 series, whole cell assay, read-out: EC50

DosS, sequence (P9WGK3 whole entry): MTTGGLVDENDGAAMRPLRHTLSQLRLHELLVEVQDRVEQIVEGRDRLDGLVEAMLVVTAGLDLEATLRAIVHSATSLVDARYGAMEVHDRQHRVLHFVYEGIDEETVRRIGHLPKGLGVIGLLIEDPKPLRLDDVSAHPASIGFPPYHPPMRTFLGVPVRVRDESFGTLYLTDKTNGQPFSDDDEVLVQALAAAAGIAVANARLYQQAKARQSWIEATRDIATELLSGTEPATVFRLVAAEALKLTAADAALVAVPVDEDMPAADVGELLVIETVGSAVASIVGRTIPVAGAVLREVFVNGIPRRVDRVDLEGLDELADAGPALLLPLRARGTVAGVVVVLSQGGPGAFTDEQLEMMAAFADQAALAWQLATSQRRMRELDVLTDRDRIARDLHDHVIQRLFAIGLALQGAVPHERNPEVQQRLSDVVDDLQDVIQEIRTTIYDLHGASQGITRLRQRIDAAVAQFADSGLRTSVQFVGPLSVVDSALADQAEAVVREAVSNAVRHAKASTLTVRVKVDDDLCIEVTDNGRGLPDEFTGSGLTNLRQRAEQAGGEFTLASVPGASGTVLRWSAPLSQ
DosR, sequence (P9WMF9 whole entry, looked up): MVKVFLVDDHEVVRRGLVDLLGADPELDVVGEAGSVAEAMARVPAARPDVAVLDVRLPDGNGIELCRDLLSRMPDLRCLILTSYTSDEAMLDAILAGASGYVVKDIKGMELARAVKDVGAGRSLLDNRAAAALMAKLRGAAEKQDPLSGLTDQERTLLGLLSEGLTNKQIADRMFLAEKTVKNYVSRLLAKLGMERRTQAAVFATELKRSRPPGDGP

NCCN(CCN)/[N+]([O-])=N/O [DETA-NONOate, reference compound]
induction of hspX by the inducer [1]: 3024 fold | induction of tgs1 by the inducer [1]: 113 fold

O=C(Nc1cccc(O)c1)c1cccc(NC(=O)c2cccs2)c1 [HC103A, reference compound]
effect on DosS autophosphorylation (DosS): strongly inhibited

CN(C)CCCN1C(=O)c2cccc3c(Br)ccc(c23)C1=O [HC104A]
EC50 [2, 8]: 9.8 µM | EC50 [2, 9]: 9.8 µM | impact on Mtb growth (Mtb): minimal impact | inhibition of hspX and tgs1 gene expression during hypoxia [3]: strongly inhibited | downregulation of dosR [3]: 6 fold | downregulation of hspX [3]: 570 fold | downregulation of tgs1 [3]: 13 fold | additional genes repressed that were not repressed in CDC1551(ΔdosR) (DosR regulon): 119 genes | genes from dosR regulon inhibited (DosR regulon): 26 genes | inhibition of hspX induction [4]: 185 fold | inhibition of tgs1 induction [4]: 10 fold | inhibition of hspX following DETA-NONOate treatment [1]: 302 fold | inhibition of tgs1 following DETA-NONOate treatment [1]: 6.6 fold | inhibition of hspX transcripts following vitamin C treatment [1]: 3.4 fold | inhibition of tgs1 transcripts following vitamin C treatment [1]: no effect | reduction of TAG accumulation (TAG accumulation in Mtb): ~50% | survival relative to DMSO control during NRP (Mtb CDC1551): no impact on Mtb survival | effect on DosS autophosphorylation (DosS): no inhibitory activity; also recorded: inhibitory activity was not observed; also recorded: no effect | concentration at which inhibition of DosR DNA binding begins (DosR; 2 μM DosR, doses 1-80 μM): 10 µM | % free DNA (DosR; 20 μM, 2 μM DosR): 72% | % free DNA (DosR; 30 μM, 2 μM DosR): 89% | % free DNA (DosR; 40 μM, 2 μM DosR): 92% | inhibition of DosR DNA binding compared to DMSO (DosR; 40 μM, 2 μM DosR): ~22 fold | % free DNA (DosR; 60 μM, 2 μM DosR): 96% | % free DNA (DosR; 80 μM, 2 μM DosR (normalised as 100%)): 100% | IC50 (DosR; preliminary, data not shown, read-out: IC50 for inhibition of DosR-DNA binding): ~10 µM

CN(C)CCCN1C(=O)c2cccc3cccc(c23)C1=O [HC104B]
activity in the whole cell Mtb reporter assay [2]: complete loss of activity | EC50 [2, 9]: > 200 µM

CN1C(=O)c2cccc3c(Br)ccc(c23)C1=O [HC104G]
fold less active than HC104A [2]: ~10 fold | EC50 [2, 9]: 43.8 µM | fold less active than HC104A ([2]; whole cell assay): ~5 fold

O=C(Nc1ccno1)Nc1ccc(Cl)cc1Cl [HC106A]
impact on Mtb growth (Mtb): minimal impact | inhibition of hspX and tgs1 gene expression during hypoxia [3]: repressed to undetectable levels | inhibition of hspX and tgs1 gene expression during hypoxia ([3]; listed as H106A): strongly inhibited | downregulation of dosR [3]: 49 fold | downregulation of hspX [3]: 1360 fold | downregulation of tgs1 [3]: 1424 fold | additional genes repressed that were not repressed in CDC1551(ΔdosR) (DosR regulon): 35 genes | genes from dosR regulon inhibited (DosR regulon): 53 genes | inhibition of hspX induction [4]: 6 fold | inhibition of tgs1 induction [4]: 4 fold | inhibition of hspX following DETA-NONOate treatment [1]: 362 fold | inhibition of tgs1 following DETA-NONOate treatment [1]: 151 fold | inhibition of hspX transcripts following vitamin C treatment [1]: 78 fold | inhibition of tgs1 transcripts following vitamin C treatment [1]: 14 fold | reduction of TAG accumulation (TAG accumulation in Mtb): ~50% | survival relative to DMSO control during NRP (Mtb CDC1551): 50% | reduction of survival as compared to DMSO control (Mtb CDC1551; hypoxic shift-down model): 50% | effect on DosS autophosphorylation (DosS): no inhibitory activity; also recorded: no effect | inhibition of hspX, DosS overexpression ([5]; pVV16-DosS): 23 fold | inhibition of tgs1, DosS overexpression ([5]; pVV16-DosS): 16.5 fold | downregulation of hspX, vector control ([5]; pVV16 empty vector): 2331 fold | downregulation of tgs1, vector control ([5]; pVV16 empty vector): 3470 fold | effect on DosRST signaling alone ([6]; 200 nM HC106A alone): no effect on its own | solubility (physchem): 110 µM (≈ 29.9 µg/mL)

O=C(Nc1ccon1)Nc1ccc(Cl)cc1Cl [HC106C]
activity in the whole cell Mtb reporter assay [2]: no activity

O=C(Nc1ccc(Cl)cc1)Nc1ccno1 [HC106F, 1-(4-chlorophenyl)-3-(1,2-oxazol-5-yl)urea]
fold enhanced activity relative to HC106A [2]: ~10 fold | fold enhanced activity relative to HC106A ([2]; whole cell assay): ~2 fold | melting point: 183 °C | Microsomes (% remaining @ 30 minutes) ([7]; microsomes, 0.5 h): 115% remaining | solubility (physchem): > 200 µM

O=C(Nc1ccccc1)Nc1ccno1 [MSU-33189, 3-(1,2-oxazol-5-yl)-1-phenylurea]
EC50 [2, 8]: 0.63 µM

O=C(Nc1ccno1)Nc1ccno1 [MSU-39444, 1,3-bis(1,2-oxazol-5-yl)urea]
EC50 ([2]; CDC1551 (hspX′::GFP), 6 d, read-out: EC50 of DosRST-dependent GFP fluorescence inhibition (FI)): ~2 µM | EC50 [2, 8]: 1.7 µM

O=C(Nc1cccc(Cl)c1)Nc1ccno1 [MSU-39445, 1-(3-chlorophenyl)-3-(1,2-oxazol-5-yl)urea]
EC50 [2, 8]: 0.75 µM | melting point: 159 °C (dec.) | solubility (physchem): > 100 µM

COc1ccc(NC(=O)Nc2ccno2)cc1 [MSU-39447, 1-(4-methoxyphenyl)-3-(1,2-oxazol-5-yl)urea]
EC50 [2, 8]: 0.61 µM | melting point: 166 to 167 °C | solubility (physchem): > 100 µM

O=C(Nc1ccc(Cl)nc1)Nc1ccno1 [MSU-39448, 1-(6-chloropyridin-3-yl)-3-(1,2-oxazol-5-yl)urea]
melting point: 158 to 159 °C

O=C(Nc1ccc(Cl)cn1)Nc1ccno1 [MSU-39450, 1-(5-chloropyridin-2-yl)-3-(1,2-oxazol-5-yl)urea]
melting point: 122 to 123 °C

O=C(Nc1ccc(Cl)c(Cl)c1)Nc1ccno1 [MSU-39452, 1-(3,4-dichlorophenyl)-3-(1,2-oxazol-5-yl)urea]
melting point: 164 °C

CC(C)(C)c1ccc(NC(=O)Nc2ccno2)cc1 [MSU-41442, 1-(4-tert-butylphenyl)-3-(1,2-oxazol-5-yl)urea]
melting point: 163 °C | solubility (physchem): > 100 µM

O=C(Nc1ccc(-c2ccccc2)cc1)Nc1ccno1 [MSU-41443, 1-{[1,1′-biphenyl]-4-yl}-3-(1,2-oxazol-5-yl)urea]
melting point: 193 °C | solubility (physchem): 14 µM (≈ 3.91 µg/mL)

O=C(NCc1ccccc1)Nc1ccno1 [MSU-41462, 1-benzyl-3-(1,2-oxazol-5-yl)urea]
melting point: 128 to 130 °C

O=C(Nc1ccc(C(F)(F)F)cc1)Nc1ccno1 [MSU-41463, 3-(1,2-oxazol-5-yl)-1-[4-(trifluoromethyl)phenyl]urea]
melting point: 178 °C | Microsomes (% remaining @ 30 minutes) ([7]; 30 minutes): 84 % remaining

O=C(Nc1ccc(Br)cc1)Nc1ccno1 [MSU-41464, 1-(4-bromophenyl)-3-(1,2-oxazol-5-yl)urea]
melting point: 183 to 184 °C | Microsomes (% remaining @ 30 minutes) ([7]; 30 minutes): 109% remaining

COC(=O)c1ccc(NC(=O)Nc2ccno2)cc1 [MSU-41465, methyl 4-{[(1,2-oxazol-5-yl)carbamoyl]amino}benzoate]
melting point: 194 °C | Microsomes (% remaining @ 30 minutes) ([7]; microsomes, 0.5 h): 73 % remaining

CC(C)CNC(=O)Nc1ccno1 [MSU-41542, 3-(2-methylpropyl)-1-(1,2-oxazol-5-yl)urea]
melting point: 187 °C

O=C(Nc1ccc(COc2ccccc2)cc1)Nc1ccno1 [MSU-41545, 3-(1,2-oxazol-5-yl)-1-[4-(phenoxymethyl)phenyl]urea]
melting point: 164 °C

O=C(Nc1ccno1)NC1CCCC1 [MSU-41546, 1-cyclopentyl-3-(1,2-oxazol-5-yl)urea]
melting point: 182 °C

O=C(Nc1ccno1)NC1CCCCC1 [MSU-42002, 1-cyclohexyl-3-(1,2-oxazol-5-yl)urea]
melting point: 180 °C

O=C(Nc1cccc(Br)c1)Nc1ccno1 [MSU-42003, 1-(3-bromophenyl)-3-(1,2-oxazol-5-yl)urea]
melting point: 157 °C

O=C(NCCc1ccccc1)Nc1ccno1 [MSU-42004, 3-(1,2-oxazol-5-yl)-1-(2-phenylethyl)urea]
melting point: 165 °C

C[C@@H]1CC[C@H]2[C@@H](C)C(=O)O[C@@H]3O[C@@]4(C)CC[C@@H]1[C@]32OO4 [artemisinin, reference compound]
maximum inhibition of hspX ([3]; maximum inhibition): 51 fold | maximum inhibition of tgs1 ([3]; maximum inhibition): 166 fold | inhibition at 0.5 µM ([6]; Mycobacterium tuberculosis, 500 nM artemisinin alone): 40%

O=C(O)CCCN1C(=O)c2cccc3cccc(c23)C1=O [virstatin, reference compound]
activity in the whole cell Mtb reporter assay [2]: did not have any impact on DosRST signaling; also recorded: nor did virstatin inhibit the DosRST pathway; also recorded: not effect | impact on DosR binding of DNA (words) (DosR; 2 μM DosR): no impact on DosR binding of DNA | impact on DosR binding of DNA (words) (DosR; 2 μM DosR, listed as Virstatin): did not impact DosR binding of promoter DNA

O=C1O[C@H]([C@@H](O)CO)C(O)=C1O [vitamin C, reference compound]
induction of hspX by the inducer [1]: 2162 fold | induction of tgs1 by the inducer [1]: 58 fold
